Source: patent US20240270821A1, “GIP/GLP1/GCG TRI-RECEPTOR AGONISTS AND USES THEREOF” (priority 2023, published 2024)
Starred links: 1 amine or outer side, 2 acyl side, 3 side chain; linkers in the order of their positions; H or OH if unused. Non-standard residues stand in square brackets, D forms with d. Groups on a side chain read outwards from the residue. No end group written: not given here. *: point of attachment. C20 diacid = O=C(O)CCCCCCCCCCCCCCCCCCC(=O)*; C18 diacid = O=C(O)CCCCCCCCCCCCCCCCC(=O)*; γGlu = O=C(O)[C@H](CCC(=O)[*:2])N[*:1]; αMe4Pal = C[C@](N)(Cc1ccncc1)C(=O)O; 4Pal = N[C@@H](Cc1ccncc1)C(=O)O; αMeL = CC(C)C[C@](C)(N)C(=O)O; Orn = NCCC[C@H](N)C(=O)O; AEEA = NCCOCCOCC(=O)O; Aib = CC(C)(N)C(=O)O

Legend:
Type in all cases: cell-based
[1] = biological target: T1, hGIPR (Homo sapiens, UniProt P48546); assay: Functional cAMP activity in the presence of 1% HSA; settings: read-out: cAMP Rel EC50, hGIPR
T1 sequence (P48546 22-466): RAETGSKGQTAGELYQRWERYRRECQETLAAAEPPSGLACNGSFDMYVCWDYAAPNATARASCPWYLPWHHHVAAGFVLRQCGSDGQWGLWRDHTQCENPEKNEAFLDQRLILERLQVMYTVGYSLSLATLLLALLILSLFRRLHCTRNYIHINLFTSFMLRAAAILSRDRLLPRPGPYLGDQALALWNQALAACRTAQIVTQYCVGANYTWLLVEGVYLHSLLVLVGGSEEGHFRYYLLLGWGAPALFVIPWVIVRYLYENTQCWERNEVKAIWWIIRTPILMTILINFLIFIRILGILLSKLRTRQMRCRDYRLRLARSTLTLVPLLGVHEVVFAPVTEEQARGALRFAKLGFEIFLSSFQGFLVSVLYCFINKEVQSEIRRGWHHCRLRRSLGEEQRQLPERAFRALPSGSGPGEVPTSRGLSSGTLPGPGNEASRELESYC

[2] = biological target: T2, hGLP-1R (Homo sapiens, UniProt P43220); assay: Functional cAMP activity in the presence of 1% HSA; settings: read-out: cAMP Rel EC50, hGLP-1R
T2 sequence (P43220 24-463): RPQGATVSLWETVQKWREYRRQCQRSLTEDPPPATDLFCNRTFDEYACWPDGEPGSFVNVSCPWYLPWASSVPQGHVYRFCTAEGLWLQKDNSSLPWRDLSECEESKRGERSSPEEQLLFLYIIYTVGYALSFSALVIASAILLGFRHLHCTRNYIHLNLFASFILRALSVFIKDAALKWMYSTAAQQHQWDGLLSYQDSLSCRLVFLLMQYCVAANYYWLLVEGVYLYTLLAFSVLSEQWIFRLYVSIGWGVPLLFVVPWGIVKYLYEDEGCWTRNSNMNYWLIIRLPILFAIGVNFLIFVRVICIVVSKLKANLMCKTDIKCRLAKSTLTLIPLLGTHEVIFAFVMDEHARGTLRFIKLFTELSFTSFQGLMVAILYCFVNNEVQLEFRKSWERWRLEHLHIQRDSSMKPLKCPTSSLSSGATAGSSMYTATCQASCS

[3] = biological target: human GcgR (Homo sapiens, UniProt P47871); assay: Functional cAMP activity in the presence of 1% HSA; settings: read-out: cAMP Rel EC50, hGcgR
Sequence of human GcgR (P47871 26-477): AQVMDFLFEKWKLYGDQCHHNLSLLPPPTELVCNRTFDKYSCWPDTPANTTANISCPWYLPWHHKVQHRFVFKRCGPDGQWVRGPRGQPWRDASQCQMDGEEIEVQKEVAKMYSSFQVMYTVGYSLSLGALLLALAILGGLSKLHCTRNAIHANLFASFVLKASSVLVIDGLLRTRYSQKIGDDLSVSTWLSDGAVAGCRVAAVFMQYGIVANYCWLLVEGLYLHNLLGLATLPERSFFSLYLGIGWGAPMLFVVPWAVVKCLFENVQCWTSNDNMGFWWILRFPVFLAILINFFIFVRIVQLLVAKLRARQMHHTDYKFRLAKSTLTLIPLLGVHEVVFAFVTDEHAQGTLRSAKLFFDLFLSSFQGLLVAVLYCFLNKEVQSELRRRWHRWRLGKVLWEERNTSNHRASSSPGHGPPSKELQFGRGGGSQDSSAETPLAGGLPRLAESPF

[4] = biological target: T1, hGIPR; assay: Functional cAMP activation in the presence of 0.1% casein (no HSA); settings: in the presence of 0.1% casein (no HSA); geometric mean; read-out: Relative cAMP EC50, hGIPR;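 as to Relative cAMP EC50, hGIPR: intracellular cAMP rise after 30 min at 37 °C read by HTRF against a standard curve, scaled between buffer alone (0%) and top control ligand concentration (100%), four-parameter fit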;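 as to Relative cAMP EC50, hGLP-1R: intracellular cAMP rise after 30 min at 37 °C read by HTRF, normalized between buffer only (0%) and maximal control ligand (100%), four-parameter variable-slope fit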;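 as to Relative cAMP EC50, hGcgR: intracellular cAMP rise after 30 min at 37 °C, read by HTRF against a cAMP standard curve, scaled from buffer only (0%) to maximal control ligand response (100%)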
[5] = biological target: T2, hGLP-1R; assay: as above; settings: in the presence of 0.1% casein (no HSA); geometric mean; read-out: Relative cAMP EC50, hGLP-1R
[6] = biological target: hGcgR (Homo sapiens, UniProt P47871); assay: as above; settings: in the presence of 0.1% casein (no HSA); geometric mean; read-out: Relative cAMP EC50, hGcgR;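 also: intracellular cAMP rise after 30 min at 37 °C, read by HTRF against a cAMP standard curve, scaled from buffer only (0%) to maximal control ligand response (100%)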
Sequence of hGcgR (P47871 26-477): as above

[7] = biological target: human GLP1-R (Homo sapiens, UniProt P43220); assay: GLP1-R internalization assay in HEK293 cells; settings: for EC50: HEK293 cells expressing SNAP-GLP-1R, read-out: GLP1R Internalization EC50; for Internalization % TOP: normalized to maximum concentration of GLP-1 (100%)
Sequence of human GLP1-R (P43220 24-463): as the sequence (P43220 24-463) above

Compound | EC50 [1] [nM] | EC50 [2] [nM] | EC50 [3] [nM] | EC50 [4] [nM] | EC50 [5] [nM] | EC50 [6] [nM] | EC50 [7] [nM] | Internalization % TOP [7] [%]
CC[C@H](C)[C@H](NC(=O)[C@H](Cc1ccccc1)NC(=O)[C@H](C)NC(=O)C(C)(C)NC(=O)[C@H](CCC(N)=O)NC(=O)[C@H](C)NC(=O)[C@H](CCCCNC(=O)COCCOCCNC(=O)CC[C@H](NC(=O)CCCCCCCCCCCCCCCCC(=O)O)C(=O)O)NC(=O)[C@H](CCCCN)NC(=O)[C@H](CC(=O)O)NC(=O)[C@H](CC(C)C)NC(=O)[C@](C)(CC(C)C)NC(=O)[C@H](CCCCN)NC(=O)[C@H](CO)NC(=O)[C@H](Cc1ccccc1)NC(=O)[C@H](CC(=O)O)NC(=O)[C@H](CO)NC(=O)[C@@H](NC(=O)[C@H](Cc1ccccc1)NC(=O)[C@@H](NC(=O)CNC(=O)[C@H](CCC(N)=O)NC(=O)C(C)(C)NC(=O)[C@@H](N)Cc1ccc(O)cc1)[C@@H](C)O)[C@@H](C)O)C(=O)N[C@@H](CCC(=O)O)C(=O)N[C@@H](Cc1ccc(O)cc1)C(=O)N[C@@H](CC(C)C)C(=O)N[C@@H](CC(C)C)C(=O)N[C@@H](C)C(=O)NCC(=O)NCC(=O)N1CCC[C@H]1C(=O)N[C@@H](CO)C(=O)N[C@@H](CO)C(=O)NCC(=O)N[C@@H](CCC(=O)O)C(=O)N1CCC[C@H]1C(=O)N1CCC[C@H]1C(=O)N1CCC[C@H]1C(=O)N[C@@H](CO)C(=O)N[C@@H](CCC(=O)O)C(=O)NCC(N)=O [Example 22] | 81 | 592 | 532 | 0.246 | 2.94 | 5.42 | 41.9 | 64.7
Y[Aib]QGTFTSDFSK[αMeL]LDKK([AEEA-γGlu-C18 diacid])AQ[Aib]QFIEYLLAGGPSSGEPPPSEG-NH2 [Example 26] | 35.4 | 623 | 980 | 0.2 | 3.44 | 4.82 | 96.1 | 75.6
H-Y[Aib]QGTFTSDYSK[αMeL]LDKK([AEEA-γGlu-C18 diacid])AQ[Aib]AFIEYLLEGGESSGAPPPSGS-NH2 [Example 358] | 38.8 | 492 | 876 | 0.182 | 2.31 | 2.78 | 21.5 | 83.1
H-Y[Aib]QGTFTSD[4Pal]SR[αMeL]LDKK([AEEA-γGlu-C18 diacid])AQ[Aib]AFIEYLLE[Aib]GPSSGAPPPSGE-NH2 [Example 114] | 19.6 | 1370 | 1120 | 0.14 | 6.38 | 5.63 | 47.2 | 62.9
H-Y[Aib]QGTFTSDFS[Orn][αMeL]LDKK([AEEA-γGlu-C18 diacid])AQ[αMe4Pal]AFIEYLIE[Aib]GESSGAPPPSGE-NH2 [Example 228] | 37.8 | 311 | 322 | 0.147 | 1.52 | 1.38 | 39 | 35
CC[C@H](C)[C@H](NC(=O)[C@H](Cc1ccccc1)NC(=O)[C@H](C)NC(=O)C(C)(C)NC(=O)[C@H](CCC(N)=O)NC(=O)[C@H](C)NC(=O)[C@H](CCCCNC(=O)COCCOCCNC(=O)CC[C@H](NC(=O)CCCCCCCCCCCCCCCCC(=O)O)C(=O)O)NC(=O)[C@H](CCCCN)NC(=O)[C@H](CC(=O)O)NC(=O)[C@H](CC(C)C)NC(=O)[C@](C)(CC(C)C)NC(=O)[C@H](CCCN)NC(=O)[C@H](CO)NC(=O)[C@H](Cc1ccccc1)NC(=O)[C@H](CC(=O)O)NC(=O)[C@H](CO)NC(=O)[C@@H](NC(=O)[C@H](Cc1ccccc1)NC(=O)[C@@H](NC(=O)CNC(=O)[C@H](CCC(N)=O)NC(=O)C(C)(C)NC(=O)[C@@H](N)Cc1ccc(O)cc1)[C@@H](C)O)[C@@H](C)O)C(=O)N[C@@H](CCC(=O)O)C(=O)N[C@@H](Cc1ccc(O)cc1)C(=O)N[C@@H](CC(C)C)C(=O)N[C@@H](CC(C)C)C(=O)N[C@@H](CCC(=O)O)C(=O)N[C@H](C)C(=O)NCC(=O)N1CCC[C@H]1C(=O)N[C@@H](CO)C(=O)N[C@@H](CO)C(=O)NCC(=O)N[C@@H](C)C(=O)N1CCC[C@H]1C(=O)N1CCC[C@H]1C(=O)N1CCC[C@H]1C(=O)N[C@@H](CO)C(=O)NCC(=O)N[C@@H](CCC(=O)O)C(N)=O [Example 129] | 24.3 | 284 | 510 | 0.134 | 1.87 | 2.01 | 22.5 | 40.6
H-Y[Aib]QGTFTSDFS[Orn][αMeL]LDKK([AEEA-γGlu-C18 diacid])AQ[Aib]AFIEWLLEGGPSSGAPPPSGS-NH2 [Example 168] | 31.9 | 281 | 1270 | 0.233 | 2.44 | 5.54 | 74.8 | 38.7
H-Y[Aib]QGTFTSDFSK[αMeL]LDKK([AEEA-γGlu-C20 diacid])AQ[Aib]AFIEYLLAGGPSSGEPPPGEG-NH2 [Example 31] | 63.6 | 737 | 1750 | 0.249 | 2.16 | 8.42 | 91.9 | 67.4
